One series has as its system HIF1α and HIF2α. In words: HIFα induction in tissues of treated mice (immunoblotting). In kind it is in vivo, C57BL/6 mice. As to conditions: i.p. The method, then: All animal experiments were performed on male C57BL/6 mice aged 3 months (purchased from Harlan Laboratories, Blackthorn) housed in specific pathogen free conditions with free access to water and standard chow. Mice were injected intraperitonially with the inhibitor (dissolved in Hanks’ buffered saline solution, pH 7.0, 5% DMSO final) or vehicle at the indicated doses for the indicated time as previously described. Tissues from treated mice were harvested and ‘snap frozen’ with liquid nitrogen before being stored at -80°C. For immunoblotting, a portion of the tissues was removed, weighed and homogenised in urea/SDS buffer before being analysed by immunoblotting with HIF1α rabbit polyclonal antibody (10006421, Cayman Chemical, 1:1000) or HIF2α rabbit polyclonal antibody (PM9 [27], 1:1000). For RNA extraction, tissues were ‘snap frozen’ in liquid nitrogen immediately after harvesting, then ground to a fine powder using a cryogenic tissue pulveriser, keeping samples on dry ice at all times and processed for total RNA extraction using the mirVana miRNA isolation kit (AM1560, Life Technologies) according to the manufacturer’s protocol for processing frozen tissues. All animal procedures were compliant with the UK Home Office Animals (Scientific Procedures) Act 1986 and Local Ethical Review Procedures (University of Oxford Medical Sciences Division Ethical Review Committee).
The inhibitors or vehicle controls were injected intraperitonially into wild type C57BL/6 mice and sacrificed after the indicated treatment time before harvesting their tissues to be analysed for HIFα levels by immunoblotting.
On the technique in general: Immunoblotting shows a protein as a band on a membrane.

Another series has as its target T1, JMJD2C (KDM4C) (Homo sapiens, UniProt Q9H3R0).
T1 sequence (Q9H3R0 1-1056): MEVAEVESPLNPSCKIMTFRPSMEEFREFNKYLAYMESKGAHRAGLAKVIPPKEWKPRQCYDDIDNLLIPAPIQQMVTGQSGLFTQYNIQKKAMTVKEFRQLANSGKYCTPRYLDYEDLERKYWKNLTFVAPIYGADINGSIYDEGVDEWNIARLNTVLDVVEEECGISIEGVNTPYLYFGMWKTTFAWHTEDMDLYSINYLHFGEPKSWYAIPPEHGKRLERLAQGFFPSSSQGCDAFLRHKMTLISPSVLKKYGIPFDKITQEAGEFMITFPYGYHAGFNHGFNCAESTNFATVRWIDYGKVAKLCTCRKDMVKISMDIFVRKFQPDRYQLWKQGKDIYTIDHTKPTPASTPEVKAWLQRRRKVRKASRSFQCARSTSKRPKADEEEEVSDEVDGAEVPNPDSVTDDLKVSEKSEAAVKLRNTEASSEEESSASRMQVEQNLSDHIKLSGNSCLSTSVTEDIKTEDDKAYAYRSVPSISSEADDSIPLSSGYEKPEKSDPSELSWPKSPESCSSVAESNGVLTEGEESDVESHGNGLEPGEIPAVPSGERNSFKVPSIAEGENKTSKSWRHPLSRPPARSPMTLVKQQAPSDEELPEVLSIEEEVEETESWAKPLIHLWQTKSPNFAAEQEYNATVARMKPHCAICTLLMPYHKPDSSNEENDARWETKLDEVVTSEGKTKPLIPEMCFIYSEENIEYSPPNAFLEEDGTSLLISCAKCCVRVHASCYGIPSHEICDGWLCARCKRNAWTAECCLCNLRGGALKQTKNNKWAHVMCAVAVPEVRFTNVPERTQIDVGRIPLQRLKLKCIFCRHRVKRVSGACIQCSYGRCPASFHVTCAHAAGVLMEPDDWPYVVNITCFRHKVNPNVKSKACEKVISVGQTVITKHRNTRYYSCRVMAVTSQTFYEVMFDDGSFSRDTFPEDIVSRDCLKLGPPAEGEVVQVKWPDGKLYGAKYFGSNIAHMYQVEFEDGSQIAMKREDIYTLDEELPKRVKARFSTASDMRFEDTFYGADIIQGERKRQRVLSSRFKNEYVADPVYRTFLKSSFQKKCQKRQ
On the set-up: method as in PMID 26682036. As to conditions: cited from earlier work.

In the next series the target is T2, JMJD2A (KDM4A) (Homo sapiens, UniProt O75164).
T2 sequence (O75164 1-1064): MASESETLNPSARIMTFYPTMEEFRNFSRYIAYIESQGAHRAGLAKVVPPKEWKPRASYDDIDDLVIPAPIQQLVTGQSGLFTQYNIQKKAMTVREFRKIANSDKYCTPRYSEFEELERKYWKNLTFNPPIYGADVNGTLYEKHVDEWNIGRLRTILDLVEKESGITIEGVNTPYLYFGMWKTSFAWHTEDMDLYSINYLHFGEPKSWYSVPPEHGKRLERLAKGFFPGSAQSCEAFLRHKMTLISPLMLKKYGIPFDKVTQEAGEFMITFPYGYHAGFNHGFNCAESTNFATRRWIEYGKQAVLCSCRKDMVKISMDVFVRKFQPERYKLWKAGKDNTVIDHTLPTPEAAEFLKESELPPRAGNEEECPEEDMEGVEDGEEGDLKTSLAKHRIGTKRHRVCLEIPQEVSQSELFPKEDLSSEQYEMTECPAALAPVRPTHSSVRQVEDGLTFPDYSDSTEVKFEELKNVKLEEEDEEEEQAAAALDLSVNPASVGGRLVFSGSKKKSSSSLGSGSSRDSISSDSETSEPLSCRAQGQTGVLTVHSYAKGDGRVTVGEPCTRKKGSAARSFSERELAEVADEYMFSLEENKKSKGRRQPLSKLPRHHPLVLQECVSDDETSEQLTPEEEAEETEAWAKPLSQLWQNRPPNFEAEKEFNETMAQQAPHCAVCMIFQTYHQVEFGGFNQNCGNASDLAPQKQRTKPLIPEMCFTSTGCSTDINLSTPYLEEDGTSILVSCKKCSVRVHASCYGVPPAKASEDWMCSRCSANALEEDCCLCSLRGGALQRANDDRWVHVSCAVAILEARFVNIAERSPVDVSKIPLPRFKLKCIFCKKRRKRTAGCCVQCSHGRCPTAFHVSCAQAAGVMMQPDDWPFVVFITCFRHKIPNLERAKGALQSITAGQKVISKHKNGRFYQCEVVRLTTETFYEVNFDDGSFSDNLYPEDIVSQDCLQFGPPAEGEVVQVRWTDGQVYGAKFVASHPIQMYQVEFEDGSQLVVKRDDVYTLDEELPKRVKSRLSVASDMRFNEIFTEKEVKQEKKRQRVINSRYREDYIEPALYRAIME
Also on record: method as in PMID 26682036. As to conditions: cited from earlier work.

The target of the next series is T3, BBOX1 (Homo sapiens, UniProt O75936).
T3 sequence (O75936 1-387): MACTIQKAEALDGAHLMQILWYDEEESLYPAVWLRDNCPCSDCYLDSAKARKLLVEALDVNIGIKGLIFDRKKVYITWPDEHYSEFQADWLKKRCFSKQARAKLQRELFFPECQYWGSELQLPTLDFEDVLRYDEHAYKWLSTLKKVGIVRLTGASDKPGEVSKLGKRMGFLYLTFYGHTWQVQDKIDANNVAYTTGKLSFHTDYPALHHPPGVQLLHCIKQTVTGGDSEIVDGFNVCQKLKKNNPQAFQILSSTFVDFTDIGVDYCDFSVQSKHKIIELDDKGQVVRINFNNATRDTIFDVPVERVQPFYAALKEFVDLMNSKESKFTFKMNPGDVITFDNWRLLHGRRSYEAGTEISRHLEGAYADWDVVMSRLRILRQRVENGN
Also on record: method as in PMID 22730246. As to conditions: cited from earlier work.

The target in the next series is FIH (Homo sapiens, UniProt Q9NWT6). Kind of series: FIH liquid chromatography-mass spectrometry assay (RapidFire).
Chain of FIH (Q9NWT6 whole entry): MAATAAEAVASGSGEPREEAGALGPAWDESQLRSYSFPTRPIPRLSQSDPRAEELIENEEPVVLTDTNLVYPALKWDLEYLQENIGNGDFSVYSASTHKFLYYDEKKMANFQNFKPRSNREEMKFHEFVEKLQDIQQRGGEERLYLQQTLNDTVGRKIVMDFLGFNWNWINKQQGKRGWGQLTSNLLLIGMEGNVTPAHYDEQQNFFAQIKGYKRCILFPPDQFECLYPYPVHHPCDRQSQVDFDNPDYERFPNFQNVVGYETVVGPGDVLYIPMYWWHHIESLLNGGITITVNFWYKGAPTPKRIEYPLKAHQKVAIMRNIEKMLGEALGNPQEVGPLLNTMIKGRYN
The next series addresses PHD2 (Homo sapiens, UniProt Q9GZT9). In words: Competition-based NMR reporter ligand displacement assay ([13C]-2OG / [13C]-CODD). The series is classed as binding. As to conditions: 50 μM apo-PHD2, 400 μM Zn(II), 400 μM competitor. The method, then: For 2OG displacement assays, selective ^1H-^13C 1D-HSQC experiments were conducted at 700 MHz using a Bruker Avance III spectrometer equipped with an inverse TCI cryoprobe optimized for ^1H observation. The CLIP-HSQC sequence was used (without ^13C decoupling). Typical experimental parameters were as follows: acquisition time 0.58 s, relaxation delay 2 s, number of transients 256−1600. The 1JCH was set to 160 Hz. For the selective version of the experiment, a 6.8 ms Q3 180 degree pulse was used, and selective irradiation was applied at the appropriate [^13C] chemical shift. Three millimeter MATCH tubes with a 160 μL final sample volume were used. Solutions were buffered using Tris-D11 50 mM (pH 7.5) dissolved in 90% H2O and 10% D2O. Assays were conducted at 298 K in solutions typically containing 50 μM apo-PHD2, 400 μM Zn(II), 50 μM 1,2,3,4-[^13C]-2OG or [^13C]-labeled CODD (uniformly [^13C]-labeled at proline-564) and 400 μM competitor (except unlabeled CODD competitor used at 800 μM). Selective irradiation was applied at 30.5 ppm for [^13C]-2OG and 24.25 ppm for [^13C]-labeled CODD. Percentage displacement was calculated according to equation: (I−I0)/(Iblank−I0) where I 0 is the intensity of the reporter in the presence of protein but without inhibitor, I is the intensity of the reporter in the presence of protein and inhibitor, and I blank is the intensity of the reporter without protein or inhibitor.
The results reveal that the previously described inhibitor IOX2 displaces 2OG from PHD2 (S3A Fig), consistent with its predicted binding mode. […] Previous crystallographic studies have shown that the HIF substrate can still bind even when the 2OG active site is occupied by some, but not all, inhibitors.

[1] abbreviates: 1 h, equimolar: IOX2 37.7 mg/kg, IOX4 35 mg/kg, DMOG 75 mg/kg.

Where a name gives a salt, the structure may show the parent alone.

Data on 5 molecules can be found in article PMC4492579, “Potent and Selective Triazole-Based Inhibitors of the Hypoxia-Inducible Factor Prolyl-Hydroxylases with Activity in the Murine Brain” (PLoS ONE, 2015).

Chain of PHD2 (Q9GZT9 whole entry): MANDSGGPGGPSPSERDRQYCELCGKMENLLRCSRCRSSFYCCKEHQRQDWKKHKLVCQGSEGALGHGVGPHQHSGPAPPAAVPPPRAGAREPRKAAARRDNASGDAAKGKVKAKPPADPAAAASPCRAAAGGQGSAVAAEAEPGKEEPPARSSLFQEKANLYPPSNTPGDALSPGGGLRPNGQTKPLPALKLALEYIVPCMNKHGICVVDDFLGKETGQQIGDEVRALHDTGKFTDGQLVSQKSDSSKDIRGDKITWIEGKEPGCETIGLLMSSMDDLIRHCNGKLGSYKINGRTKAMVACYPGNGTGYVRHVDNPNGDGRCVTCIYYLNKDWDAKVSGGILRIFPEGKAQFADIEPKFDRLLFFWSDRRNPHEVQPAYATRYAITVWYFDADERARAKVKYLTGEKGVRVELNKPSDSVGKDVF
Procedure for FIH: After 15 minutes, the enzyme reaction was stopped by the addition of 4 ml 10% formic acid and the reaction mixture transferred to a RapidFire RF360 high throughput sampling robot. Samples were aspirated under vacuum onto a C4 Solid Phase Extraction (SPE) cartridge. […] Ion chromatogram data was extracted for the non-hydroxylated peptide substrate and the hydroxylated peptide product and peak area data for extracted ion chromatograms were integrated using RapidFire Integrator software. Percentage conversion of substrate to product was calculated in Microsoft Excel and IC50 values were calculated using Graphpad Prism 5.

For the molecule `O=C(O)CNC(=O)c1nc(Cl)c2ccccc2c1O` [IOX3], the “HIF1α induction in mouse liver” value with HIF1α and HIF2α (IOX2 37.7 mg/kg, IOX3 30 mg/kg (equivalent molar dose), 1 h and […]) is “lower and shorter induction of HIF1α”.

Turning to `COC(=O)CNC(=O)C(=O)OC` [DMOG, dimethyloxalylglycine], in the series with HIF1α and HIF2α (setting [1]), the “HIF1α and HIF2α induction in liver, kidney and heart” value was “induction of HIF1α and HIF2α”; the “HIF1α and HIF2α induction in the brain” value was “not”.

What is called IC50 is the midpoint of a concentration-inhibition curve. Take `O=C(O)CNC(=O)C(=O)O` [NOG, N-oxalylglycine]: the IC50 was 0.6 µM at JMJD2C (KDM4C), 0.2 µM on JMJD2A (KDM4A), 0.39 µM on BBOX1 and 2.3 µM on FIH.

As to `O=C(O)Cc1cs/c(=N/C(=O)CS(=O)(=O)Cc2ccc3ccccc3c2)n1O` [BNS, bicyclic naphthalenylsulfone hydroxythiazole], on PHD2, the “displacement of [13C]-2OG from PHD2” value is “displace both 2OG and CODD”; the “displacement of [13C]-CODD from PHD2” value is “displace both 2OG and CODD”.

For orientation: melting point means the temperature of the solid-liquid transition. On to `O=C(O)c1ccc(-n2[nH]cc(-n3ccnn3)c2=O)nc1` (as salt: hydrochloride) [compound 1, 6-(5-oxo-4-(1H-1,2,3-triazol-1-yl)-2,5-dihydro-1H-pyrazol-1-yl)pyridine-3-carbocylic acid hydrochloride], for which the melting point is ≥ 316.6 °C (dec.).
